Measured values reported in PubChem BioAssay (NCI).
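Cultured in 96-well plates, cells were exposed to test compound for 48 hours across five concentrations. At the TGI there is no net growth.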

How the values were obtained:
Assay in all cases: NCI tumour cell line growth inhibition, 48 h
[1] = system: OVCAR-4 ovarian
[2] = system: SNB-75 CNS
[3] = system: SK-OV-3 ovarian
[4] = system: SK-MEL-5 melanoma
[5] = system: BT-549 breast
[6] = system: SNB-19 CNS
[7] = system: A549 NSCLC
[8] = system: OVCAR-8 ovarian
[9] = system: RPMI-8226 leukemia
[10] = system: ACHN renal
[11] = system: K-562 leukemia

Measured: TGI

CN(O)C(=O)Cc1ccc(OCc2cccc(Cl)c2)cc1
> 100 µM: [1] | [2] | [3] | [4] | [5] | [6] | [7] | [8] | [9] | [10] | [11]
